Reference: patent US20130252818A1, “AMORPHOUS BIOINORGANIC IONIC LIQUID COMPOSITIONS COMPRISING AGRICULTURAL SUBSTANCES” (priority 2012, published 2013)
Structures can show the parent of a compound that is named as a salt. Where two headings read alike, the source gives them in different places.

What was measured:
[1] = Thermogravimetric analysis (TGA), decomposition temperature; type: physicochemical
Procedure: Melting points of all purchased materials were determined in a capillary tube using a MeI-Temp apparatus (Barnstead/Thermo Scientific). NMR data sets were collected on a 300 MHz Bruker instrument using sample concentrations of 50 mM. Infrared spectra were measured using an Avatar 360 FT-IR ESP (ThermoElectron-Nicolet, Waltham, Mass.) equipped with a Smart DuraSampllR horizontal attenuated total reflectance (HATR) accessory. Raman spectra were measured using a Thermo-Nicolet 470 FTIR with Nd:YAG laser excitation and HgCdTe detector. Viscosity was measured on 1 mL samples with a Viscolab 3000 viscometer (Cambridge Viscosity, Medford, Mass.). Samples were heated to 90° C., except when otherwise specified, and viscosity was recorded in 2 degree increments between 50 and 90° C. with 8 min equilibration at each temperature. Thermal characterization was carried out using a Q100 DSC and a Q500 TGA (both from TA Instruments, New Castle, Del.). DSC was performed using a 5-10 mg sample in a 40 μL aluminum crucible sealed in the glovebox. A temperature range from −60 to 150° C. was scanned twice, at ramp rates of 5° C./min and 10° C./min. TGA was performed under N2 atmosphere over a temperature range from 25-800° C. with a ramp rate of 20° C. per minute and a sample size of 10 mg.

[2] = Storage under Ar, observed over 6 months for crystalline domains; type: physicochemical; conditions: stored under Ar
[3] = Solubility of the IL in solvents
[4] = test system: Pseudomonas aeruginosa biofilms; assay: Challenge of established biofilms with test compounds, CFU count; type: cell-based; conditions: 72 h biofilm, 6 h challenge
[5] = test system: E. coli; assay: Biofilm growth on IL-coated culture plates; type: cell-based; conditions: wells coated with 100 uL IL, 72 h
Procedure: (§1) A second example of clear, colorless antimicrobial films formed by compositions described herein was shown with an assay that involved coating culture plates with IL and observing the biofilm growth on the coated surface. […] Aliquots of 100 μL of either a Staphylococcus aureus culture, an E. coli culture, or a Pseudomonas aeruginosa culture were added to each coated well, the plate was fed with fresh media every 24 h, and cells were counted after 72 h, as described above. The number of cells in the treated wells was below the limit of detection of the assay of 1000 cfu/mL, as compared with normal cell counts for the LB control wells, indicating high antimicrobial efficacy of the IL coating. Because bacteria colonize a surface prior to barnacles and other organisms, proof of antibacterial effects is key to showing anti-biofouling potential in aquatic environments.

[6] = test system: Pseudomonas aeruginosa; assay: Biofilm growth on IL-coated culture plates; type: cell-based; conditions: wells coated with 100 uL IL, 72 h
Procedure: as §1

[7] = test system: Staphylococcus aureus; assay: Biofilm growth on IL-coated culture plates; type: cell-based; conditions: wells coated with 100 uL IL, 72 h
Procedure: as §1

[8] = Shelf life estimate by model-free isoconversional kinetic analysis of TGA data; type: physicochemical
Procedure: Zinc(II) chloride (273 mg, 2 mmol) was added to a scintillation vial that had been heated, then cooled under vacuum and charged with dry argon. Phenoxybenzamine hydrochloride (340.3 mg, 1 mmol) was added to the vial with a stir bar and the mixture was degassed with stirring at 60° C. The vial was filled with argon, sealed with a cap, and stirred for 24 h at 80° C. to produce a clear, colorless glass. […] NMR spectra for ^1H and ^13C were obtained in d6-acetone. […] Spectra of phenoxybenzamine-HCl were performed with 0, 0.25, 0.5, 1.0, 1.5, 2.0, and 5.0 molar equivalents of ZnCl2 to observe this effect. Thermal decomposition after a 3 h incubation of the IL at a constant 120° C. was 2.7% of the starting mass. In contrast, the phenoxybenzamine hydrochloride starting material loses 38% of its mass after a similar incubation. The IL was soluble (>1 mM) in acetone, water and phosphate buffered to pH 6.0. The IL was insoluble (<1 mM) in toluene and tetrahydrofuran. […] Model-free isoconversional kinetic analysis (for more detail, see: Doyle, C. D., J. Appl. Polym. Sci. 1962, 6:639-642; and Long, G. T. et al., J. Pharm. Sci. 2002, 91:800-809) of TGA data was used to estimate increases in shelf life due to IL formulation for phenoxybenzamine hydrochloride and phenoxybenzamine-HCl—(ZnCl2)2. The onset of mass loss indicates loss of HCl during cyclization of the 2-chloroethylamine group, the most common decomposition pathway for phenoxybenzamine hydrochloride (for more detail, see: Adams, W. P. et al., Int. J. Pharm. 1985, 25:293-312). Formulation as an ionic liquid improves the shelf life (time to reach 5% decomposition) of solid phenoxybenzamine hydrochloride at 20° C. by 7.7-fold to 15.8 years. […] The manufacturer's shelf life for 10 mg phenoxybenzamine hydrochloride tablets is 2 years, or 730 days, and the calculated value for solid phenoxybenzamine hydrochloride (5% decay at 20° C.) was 750 days (2.05 years), indicating good agreement of the calculation with actual shelf life. The most common decomposition pathway for phenoxybenzamine hydrochloride is loss of hydrochloride during cyclization of the 2-chloroethylamine group (for more detail, see: Adams, W. P. et al., Int. J. Pharm. 1985, 25:293-312) and we expect this is the earliest mass loss observed by TGA. The IL phenoxybenzamine-HCl—(ZnCl2)2 is a stabilized, amorphous formulation with shelf life greater than that of the most common crystalline form.

[9] = Solubility at 1 mM in unbuffered water by eye and UV-Vis after filtration; conditions: for A268 of the filtrate: 0.45 μm syringe filter
Procedure: Solubility of phenoxybenzamine hydrochloride and phenoxybenzamine-HCl—(ZnCl2)2 at 1 mM in unbuffered water (pH 6.5) was evaluated by eye and by UV-Vis spectroscopy after filtration through a 0.45 μm syringe filter.

[10] = type: physicochemical; conditions: 3 h incubation at constant 120° C.
[11] = TGA under N2, ramp 20° C. per minute
[12] = solid, 20° C., calculated from TGA kinetics
[13] = 1 mM in unbuffered water (pH 6.5)

CNC(=C[N+](=O)[O-])NCCSCc1ccc(CN(C)C)o1.Cl.[Cl][Zn][Cl].[Cl][Zn][Cl]
ΔTdec (increase in decomposition temperature relative to HCl starting material) [1]: +14.1 °C | Appearance of crystalline domains on storage [2]: no crystalline domains appeared | Solubility ([3]; acetone): > 1000 µM

CCCC[N+]1(C)CCCC1.O=S(=O)([N-]S(=O)(=O)C(F)(F)F)C(F)(F)F [BMP-NTf2, 1-butyl-1-methypyrrolidinium bistriflimide]
Cell count remaining in biofilm ([4]; neat): 2×10^5

CC(C)(C)CC(C)(C)c1ccc(OCCOCC[N+](C)(C)Cc2ccccc2)cc1 [Benzethonium-Cl—(ZnCl2)2]
Number of cells in treated wells [5]: < 1000 cfu/mL | Number of cells in treated wells [6]: < 1000 cfu/mL | Number of cells in treated wells [7]: < 1000 cfu/mL

CN1[C@@H]2CC[C@H]1CC(OC(=O)C(O)c1ccccc1)C2 (stereo partly shown) [Homatropine-HCl—(ZnCl2)2]
Tdec (decomposition temperature) [1]: 274.5 °C | ΔTdec (increase in decomposition temperature relative to HCl starting material) [1]: +7.8 °C | Appearance of crystalline domains on storage [2]: no crystalline domains appeared

CN(C)CCCN1c2ccccc2CCc2ccccc21.Cl.[Cl][Zn][Cl].[Cl][Zn][Cl] [Imipramine-HCl—(ZnCl2)2]
ΔTdec (increase in decomposition temperature relative to HCl starting material) [1]: +21.4 °C | Tdec (decomposition temperature) [1, 11]: 267.2 °C | Appearance of crystalline domains on storage [2]: no crystalline domains appeared

[Cl-].[Na+] [NaCl]
Cell count remaining in biofilm ([4]; 5 M in LB): 1×10^6 cells

CC(COc1ccccc1)N(CCCl)Cc1ccccc1.Cl.[Cl][Zn][Cl].[Cl][Zn][Cl] (stereo not shown) [Phenoxybenzamine-HCl—(ZnCl2)2]
ΔTdec (increase in decomposition temperature relative to HCl starting material) [1]: +45.1 °C | Tdec (decomposition temperature) [1, 11]: 259.0 °C | Improvement of shelf life over standard formulation in syrup and propylene glycol (4-day refrigerator shelf life) [8]: 1500 fold | Improvement of shelf life over solid phenoxybenzamine hydrochloride ([8]; 20° C., time to 5% decomposition): 7.7 fold | Shelf life (time to reach 5% decomposition) [8, 12]: 15.8 years | Appearance of crystalline domains on storage [2]: no crystalline domains appeared | Solubility evaluated by eye ([9]; 1 mM (0.34 mg/mL) in unbuffered water (pH 6.5)): completely dissolve | A268 of the filtrate relative to phenoxybenzamine hydrochloride solution [9, 13]: 5 × | A268 of the filtrate [9, 13]: 1.56 | Solubility ([3]; acetone): > 1000 µM | Solubility ([3]; phosphate buffered to pH 6.0): > 1000 µM | Solubility ([3]; tetrahydrofuran): < 1000 µM | Solubility ([3]; toluene): < 1000 µM | Solubility ([3]; water): > 1000 µM

[Cl-].[Cl-].[Zn+2] [ZnCl2, Zinc(II) chloride]
Cell count remaining in biofilm ([4]; 1.8 M in LB): 4×10^5

CC(C)(C)CC(C)(C)c1ccc(OCCOCC[N+](C)(C)Cc2ccccc2)cc1 [benzethonium chloride]
Viable dispersed cell count (conservative estimate, some exposures) ([4]; 78 mM in LB, precipitate impeded quantification): 5×10^4 cfu/mL

CC(COc1ccccc1)N(CCCl)Cc1ccccc1 (stereo not shown) [phenoxybenzamine hydrochloride, reference compound]
Thermal decomposition, % of the starting mass lost [10]: 38% | Shelf life (5% decay) [8, 12]: 750 days | Shelf life (time to reach 5% decomposition) [8, 12]: 2.05 years | A268 of the filtrate [9, 13]: 0.30

Ethambutol-(HCl)2—(ZnCl2)2
Tdec (decomposition temperature) [1, 11]: 216.5 °C | Appearance of crystalline domains on storage [2]: no crystalline domains appeared

Procainamide-HCl—(ZnCl2)2
Appearance of crystalline domains on storage [2]: no crystalline domains appeared
